According to PubChem BioAssay (NCI):
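Step 1: Grow cells in 96-well plates. Step 2: Expose to compound for 48 hours at 5 concentrations. Step 3: Interpolate endpoints linearly; if unreached, use highest concentration. GI50 is the concentration that inhibits growth by half. TGI: concentration producing complete growth inhibition.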

What was measured:
Assay in all cases: growth of human tumour cells (NCI), 48 h
[1] = tested on: A498 renal
[2] = tested on: A549 NSCLC
[3] = tested on: BT-549 breast
[4] = tested on: CAKI-1 renal
[5] = tested on: EKVX NSCLC
[6] = tested on: HCC-2998 colon
[7] = tested on: HCT-116 colon
[8] = tested on: RXF 393 renal
[9] = tested on: SK-MEL-5 melanoma
[10] = tested on: SN12C renal

| SMILES | GI50 [1] [µM] | TGI [1] [µM] | GI50 [2] [µM] | TGI [2] [µM] | GI50 [3] [µM] | TGI [3] [µM] | GI50 [4] [µM] | TGI [4] [µM] | GI50 [5] [µM] | TGI [5] [µM] | GI50 [6] [µM] | TGI [6] [µM] | GI50 [7] [µM] | TGI [7] [µM] | GI50 [8] [µM] | TGI [8] [µM] | GI50 [9] [µM] | TGI [9] [µM] | GI50 [10] [µM] | TGI [10] [µM] |
| --- | --- | --- | --- | --- | --- | --- | --- | --- | --- | --- | --- | --- | --- | --- | --- | --- | --- | --- | --- | --- |
| COCCOc1cc(F)c2c(Nc3ccc(NC(=O)Cn4cc(C(C)C)nn4)cc3)ncnc2c1 | > 100 | > 100 | > 100 | > 100 | 33.6 | > 100 | > 100 | > 100 | > 100 | > 100 | > 100 | > 100 | 57.9 | > 100 | 10.2 | > 100 | 24.3 | > 100 | 71.6 | > 100 |
| O=S(=O)([O-])c1ccc2c(c1)-c1nc-2nc2[n-]c(nc3nc(nc4[n-]c(n1)c1ccc(S(=O)(=O)[O-])cc41)-c1cc(S(=O)(=O)[O-])ccc1-3)c1ccc(S(=O)(=O)[O-])cc21.[Cu+2].[Na+] | > 100 | > 100 | 24.1 | > 100 | 47.4 | > 100 | > 100 | > 100 | > 60.4 | > 100 | > 100 | > 100 | 15.8 | > 100 | 49.4 | > 100 | > 100 | > 100 | > 100 | > 100 |
| Cn1c(=O)c2c(nc(Nc3cc(=O)[nH]c(=O)[nH]3)n2Cc2ccccc2)n(C)c1=O | 7.97 | > 100 | > 100 | > 100 | 69.4 | > 100 | 50.1 | > 100 | 56.6 | > 100 | > 100 | > 100 | > 100 | > 100 | > 100 | > 100 | 48 | > 100 | > 100 | > 100 |
| Oc1[nH]c2ccccc2c1N=Nc1ccccc1Cl |  | > 79.9 |  | > 100 |  | > 100 |  | 61.2 |  | > 100 |  | > 100 |  | > 100 |  | > 85.2 |  | > 100 |  | 97.7 |
| NC(=NCCCOc1ccc(Cl)cc1)Nc1ccc(C(F)(F)F)cc1 | 2.08 | 6.08 | 2.78 | 12.6 | 2.32 | 6.31 | 2.48 | 9.03 | 2.51 | 8.65 | 1.2 | 2.64 | 1.32 | 2.74 | 1.42 | 5.52 | 1.61 | 2.97 | 3.07 | 14.2 |
| Clc1coc2nc3ccccc3c(Nc3ccc4c(c3)OCO4)c12 | 1.14 | 5.82 | 0.995 | 22.3 | 5.19 | 27 | 1.51 | 10.6 | 5.35 | 30.4 | 0.404 | 2.8 | 0.443 | 11.8 | 1.51 | 8.47 | 1.46 | 5.78 | 5.95 | > 100 |
| COc1ccc2c(c1)C(C)Cc1c(Cl)ncnc1N2C (stereo not given) | 0.23 | 0.744 | 0.432 | > 100 | 0.433 | 18.4 | 1.53 | > 100 | 0.44 | 29.9 | 0.402 | 14.3 | 0.434 | 4.56 | 0.42 | 3.83 | 0.188 | 0.353 | 1.29 | 23.6 |
| COC(=O)/C=C/c1cc(O)c2oc(-c3ccc(O)c(O)c3)c(C(=O)OC)c2c1 | 1.95 | 9.58 | 1.27 | 14.1 | 1.5 | 11.9 | 1.42 | 15 | 3.3 | 16.6 | 2.09 | 11.2 | 0.329 | 9.14 | 0.523 | 4.84 | 0.221 | 1.61 | 0.576 | 12.2 |
| C/C1=C\CC[C@@]2(C)O[C@@H]2[C@H]2OC(=O)[C@@H](CN(C)C)[C@@H]2CC1 | 25.7 | 44.9 | 19.6 | 63.3 | 4.8 | 26.9 | 13.2 | 31.3 | 21.1 | 41.8 | 18 | 35.7 | 4.97 | 20.4 | 16.1 | 50.5 | 8.14 | 29.7 | 12.8 | 32.4 |
| COc1ccc(N2C(=O)C(c3ccccc3)(c3ccccc3)C23C(=O)N(C)c2ccccc23)cc1 (stereo not given) | > 100 | > 100 | > 100 | > 100 | > 100 | > 100 | > 100 | > 100 | > 100 | > 100 | > 100 | > 100 | > 100 | > 100 | > 100 | > 100 | > 100 | > 100 | > 100 | > 100 |
| Cc1ccc(C(SCC(N)C(=O)O)(c2ccccc2)c2ccc(C)cc2)cc1 (stereo not given) | 0.225 | 4.5 | 0.466 | 45.6 | 0.247 | 21.9 | 0.402 | 20.1 | 0.357 | > 46.8 | 0.236 | 2.77 | 0.0449 | 7.06 | 0.0957 | 3.52 | 0.0465 | 13.8 | 2.33 | 23.8 |
| COc1ncnc(C2CC2)c1-c1ncc2cnn(Cc3ccc(-c4nc(C(F)(F)F)cn4C(C)C)cc3)c2n1 | 24.5 | > 100 | 19.3 | > 100 | 21 | 80.5 | 14.2 | > 100 | 19 | 95.3 | 23.3 | > 100 | 22.2 | > 100 | 6.5 | 39.8 | 12.6 | 25.2 | 18.6 | > 100 |
